Literature values, collected in patent US20130210861A1, “METHODS AND COMPOSITIONS FOR MANAGING CARDIOVASCULAR DISEASE ASSOCIATED WITH CHRONIC KIDNEY DISEASE” (priority 2011, published 2013).
Like-named read-outs stand apart in the source and are kept apart here.

What was measured:
[1] = system: APO E -/- mice
[2] = system: matrix metallo proteinase-9 (MMP-9); conditions: SLE patients
[3] = Latin American cohort
[4] = multiple rheumatological cohorts with CVD
[5] = HCQ use
[6] = patients with inflammatory disorders
[7] = not given; remark: listed apart in the source
[8] = Lumina cohort, southern US

For CCN(CC)CCCC(C)Nc1ccnc2cc(Cl)ccc12 (centres unmarked) [Chloroquine], the atheroprotection [1] is listed as “significant atheroprotection activity”.
In the case of CCN(CCO)CCCC(C)Nc1ccnc2cc(Cl)ccc12 (centres unmarked) [HCQ, hydroxychloroquine], the MMP-9 secretion [2] is listed as “inhibited”, the atheroprotection [1] is listed as “significant atheroprotection” and the OR for death [3] is listed as 0.62. The OR for death [4] was 0.12-0.49, the “OR for metabolic syndrome” value [5] was 0.13 and the “OR for vascular events” value [5] was 0.3. For the same compound, the fasting glucose [6] was “lowered”, the “cardiovascular deaths in patients using HCQ” value (232 patients, 52-month study period, 7 deaths in those never exposed to HCQ) was “zero” and the “HR for death from any cause” value (Spanish trial cohort, HCQ use) was 0.14. For the same compound, the absorption ([7]; 200 mg tablet) was “absorbed rapidly and completely”, the elimination half-life ([7]; 200 mg tablet (155 mg of base)) was 32 to 50 days and the plasma protein binding ([7]; in vivo) was “moderate”. The OR for death [8] was 0.31.
